# US12233068B2, “Combination of active agents for the treatment of progressive fibrosing interstitial lung diseases (PF-ILD)” (Boehringer Ingelheim International GmbH, priority 2017, dated 2025)
# Like-named read-outs stand apart in the source and are kept apart here.
# Legend:
# rat = details: in vivo; cited from earlier work
# human COPD-patients = details: 500 μg daily; cited from earlier work
# [1] = test system: TGF-β-stimulated α-SMA protein expression of human lung fibroblasts from patients with IPF; experiment: α-SMA (smooth muscle actin) protein assay (Western replacement assay, MSD), Experiment A; format: cell-based; details: for IC50: n=5 donors; for sign of inhibition of TGF-β-stimulated α-SMA protein expression over the concentration/inhibition curve: low PDE4-inhibitor concentrations, alone or in combination with Nintedanib
# Description: (§1) Lung fibroblasts of IPF-patients (IPF-LF cells) grown in 96-well plates were incubated for min with different concentrations of the PDE4 inhibitors “Compound of formula III”, “Apremilast” or “Roflumilast-N-Oxide” or with a combination of each of the aforementioned PDE4-inhibitors with Nintedanib.
# (§2) After compound incubation cells were stimulated with the assay-relevant stimulus and incubated for the assay—relevant time in the presence of the test compounds.
# α-SMA protein was determined by a Western-replacement assay (MSD) using monoclonal anti smooth muscle actin antibodies.
# IPF-lung fibroblasts (passage 5 to 8) were seeded in 96-well cell culture plates at 4500 cells/well with 100 μL/well FBM+supplements. 24 h after seeding the cells were washed once with FBM medium without supplements and starved for 24 h.
# In experiment A1) the PDE4B-inhibitor of formula III was used as a “test compound” • in rising concentrations either alone (see full circles and black solid curve in FIG. 1) or • in rising concentrations together with a fixed concentration of 100 nMol/L of Nintedanib (see empty circles and grey solid line in FIG. 1). Experiment A2)
# In experiment A2) Apremilast was used as a “test compound” • in rising concentrations either alone (see full circles and black solid curve in FIG. 2) or • in rising concentrations together with a fixed concentration of 100 nMol/L of Nintedanib (see empty circles and grey solid line in FIG. 2). Experiment A3)
# In experiment A3) Roflumilast-N-oxide was used as a “test compound” • in rising concentrations either alone (see full circles and black solid curve in FIG. 3) or • in rising concentrations together with a fixed concentration of 100 nMol/L of Nintedanib (see empty circles and grey solid line in FIG. 3). Test Compound Dilutions
# All “test compounds” (the PDE4B-inhibitor of formula III, Apremilast or Roflumilast) were prepared 1000× in 0.1 mmol/L HCl or DMSO and a 1:3.16 dilution series was performed (in 0.1 mmol/L HCl or DMSO). To obtain 2× concentrated compound-medium a 1:500 dilution (2 μl of the 1000× dilution was added to 998 μl FBM plus 2 nmol/L PGE2) was prepared.
# 48 h after seeding, the medium was aspirated and FBM (100 μl per well) was added. After 1 h incubation at 37° C., 90 μl medium containing 2× concentrated compounds (at different concentrations) plus 2× concentrated PGE2 (2 nmol/L) was added for 30 min Final concentration for PGE2 was 1 nmol/L.
# 30 min after test compound pre-incubation (190 μL), 10 μl of 20× concentrated TGF-β was added and the cells stimulated for 48 h at a temperature of 37° C.
# For this purpose the TGF-β stock solution (20 μg/mL reconstituted in 4 mmol/L sterile HCL) was diluted 1:200 in starvation medium to reach a concentration of 100 ng/mL. 10 μL of this TGF-β medium or starvation medium was added to indicated wells. The test compound concentration was maintained during the stimulation. The final TGF-β concentration was […].
# 48 h after stimulation supernatants were removed and stored at −80° C. for further experiments. Cells were washed once with ice cold PBS and 50 μl RIPA buffer containing 1× protease inhibitor was added per well. Lysates were incubated for 5 minutes on ice before stored at −80° C.
# After thawing, 25 μl of each lysate was transferred to the membrane of the multi-array 96 well plate (MSD) and incubated for 2 h at room temperature with gentle shaking. After the incubation time, plates were washed 3 times with 200 μl 1× Tris-wash buffer (MSD) and 150 μl of 3% blocking buffer was added for 1 h. After blocking, plates were washed 3 times with 200 μl 1× Tris-wash buffer and 25 μl of the antibody solution (per plate 0.75 ml 3% blocking buffer, 2.25 ml 1× Tris-wash buffer, 1.2 μl anti-α-SMA antibody (1:2500), 15 μl goat anti-mouse sulfo-tag antibody (1:200) was added for 1 h. After AB-incubation plates were washed 3 times with 200 μl 1× Tris-wash buffer and 150 μl of 1×MSD read buffer was added per well. Plates were measured with Sector Imager (MSD). […]
# [2] = test system: FGF plus IL-1β-stimulated proliferation of human lung fibroblasts from patients with IPF; experiment: Cell proliferation assay (BrdU incorporation), Experiment B; format: cell-based; details: for IC50 of PDE4 inhibitor alone compared to IC50 of its combination with Nintedanib (proliferation): IC50 alone / IC50 with 100 nMol/L Nintedanib; for IC50: n=5 donors; for effect of the combination with Nintedanib on inhibition of fibroblast proliferation versus calculated additive curve: measured curve with 100 nMol/L Nintedanib compared with calculated additive curve (Poch & Holzmann)
# Description: as §1, §2
# BrdU incorporated in the DNA of proliferating cells was determined by ELISA. BrdU is an analog of the DNA precursor thymidine. In proliferating cells, the DNA has to be replicated before the division can take place. If BrdU is added to the cell culture, proliferating cells will incorporate it into their DNA just like they would incorporate thymidine. The amount of BrdU in the DNA of cells can be detected with specific anti-BrdU fluorescent antibodies followed by flow cytometry or by cellular ELISA with monoclonal antibodies against BrdU.
# IPF-lung fibroblasts (passage 5 to 8) were seeded in 96-well cell culture plates at 2500 cells/well with 100 μL/well FBM+supplements. 24 h after seeding the cells were washed once with FBM medium without supplements and then kept in this medium for 24 h starvation.
# In experiment B1) the PDE4B-inhibitor of formula III was used as a “test compound” • in rising concentrations either alone (see full circles and black solid curve in FIG. 4) or • in rising concentrations together with a fixed concentration of 100 nMol/L of Nintedanib (see empty circles and grey solid line in FIG. 4).
# In experiment B2) Apremilast was used as a “test compound” • in rising concentrations either alone (see full circles and black solid curve in FIG. 5) or • in rising concentrations together with a fixed concentration of 100 nMol/L of Nintedanib (see empty circles and grey solid line in FIG. 5).
# In experiment B3) Roflumilast-N-oxide was used as a “test compound” • in rising concentrations either alone (see full circles and black solid curve in FIG. 6) or • in rising concentrations together with a fixed concentration of 100 nMol/L of Nintedanib (see empty circles and grey solid line in FIG. 6).
# All test compounds were prepared 1000× in 0.1 mmol/L HCl or DMSO and a 1:3.16 dilution series was performed (in 0.1 mmol/L HCl or DMSO). To obtain 1× concentrated compound medium 1 μl of the 1000×DMSO dilution was added to 999 μl FBM.
# 48 h after seeding, medium was removed by suction and 90 μl compound- or starvation medium was added for 30 min
# 30 min after test compound pre-incubation (90 μL), 10 μl of 10× concentrated FGF plus IL-1β was added and the cells were stimulated for 92 h at a temperature of 37° C.
# For this purpose the FGF and IL-1β stock solutions (250 μg/mL and 10 μg/mL respectively) were diluted in starvation medium to reach a concentration of 200 ng/mL and 300 pg/mL for FGF and IL-1β respectively. 10 μL of this stimulus medium or starvation medium was added to the indicated wells. The test compound concentration was maintained during the stimulation.
# The final FGF concentration was 20 ng/mL. The final IL-1β concentration was 30 pg/mL.
# Proliferation was determined by a colorimetric immunoassay for the quantification of cell proliferation, based on the measurement of BrdU incorporation during DNA synthesis. The assay was carried out according to the manufacturer's instructions.
# 72 h after stimulation a 1:100 dilution of BrdU in starvation medium (resulting concentration 100 μmol/L) was performed and 10 μl added per well (end-concentration per well 10 μmol/l). About 18 h later the BrdU medium was removed by suction. Cells were fixed and denatured for 30 min at room temperature with FixDenat reagent. The reagent was removed by tapping and the anti-BrdU-POD working solution was added (incubation time: 90 min). The plate was washed three times with 200 μL washing buffer before incubation with substrate solution for about 10 min. […]
smiles,measurement,setting,value
O=C(Nc1c(Cl)cncc1Cl)c1ccc(OC(F)F)c(OCC2CC2)c1 [Roflumilast],gastrointestinal side effects in similar gastric emptying and intestinal transit experiments,rat,clear trend to show gastrointestinal side effects
same,patients with decreased weight,human COPD-patients,7.5%
same,patients with diarrhea,human COPD-patients,9.5%
same,patients with headache,human COPD-patients,4.4%
same,patients with nausea,human COPD-patients,4.7%
O=C(Nc1c(Cl)c[n+]([O-])cc1Cl)c1ccc(OC(F)F)c(OCC2CC2)c1 [Roflumilast N-Oxide],IC50,"[1]; PDE4 inhibitor alone, IPF lung fibroblasts, read-out: IC50, inhibition of TGF-β-stimulated α-SMA protein expression",14 nM
same,IC50,"[1]; PDE4 inhibitor in rising concentrations with fixed 100 nMol/L Nintedanib, read-out: IC50, inhibition of TGF-β-stimulated α-SMA protein expression, combination with Nintedanib",8.5 nM
same,sign of inhibition of TGF-β-stimulated α-SMA protein expression over the concentration/inhibition curve,[1],negative inhibitions
same,IC50 of PDE4 inhibitor alone compared to IC50 of its combination with Nintedanib (proliferation),[2],0.82 fold
same,IC50,"[2]; PDE4 inhibitor alone, IPF lung fibroblasts, read-out: IC50, inhibition of FGF plus IL-1β-stimulated proliferation",0.44 nM
same,IC50,"[2]; PDE4 inhibitor in rising concentrations with fixed 100 nMol/L Nintedanib, read-out: IC50, inhibition of FGF plus IL-1β-stimulated proliferation, combination with Nintedanib",0.534 nM
same,effect of the combination with Nintedanib on inhibition of fibroblast proliferation versus calculated additive curve,[2],additive effect
COC(=O)c1ccc2c(c1)NC(=O)/C2=C(\Nc1ccc(N(C)C(=O)CN2CCN(C)CC2)cc1)c1ccccc1 [Nintedanib],inhibitory effect on TGF-β-stimulated α-SMA protein expression (in words),[1]; 100 nM Nintedanib alone,no inhibitory effect
same,Inhibition of TGF-β-stimulated α-SMA protein expression,"[1]; 100 nMol/L Nintedanib alone, FIGS. 1, 2 and 3",≤ 0
same,inhibitory effect on human lung fibroblasts proliferation (in words),"[2]; Nintedanib alone, 100 nMol/L",clear inhibitory effect
CCOc1cc([C@@H](CS(C)(=O)=O)N2C(=O)c3cccc(NC(C)=O)c3C2=O)ccc1OC [Apremilast],IC50,"[1]; Homo sapiens, Fibroblast, PDE4 inhibitor alone, IPF lung fibroblasts, read-out: IC50, inhibition of TGF-β-stimulated α-SMA protein expression",3000 nM
same,IC50,"[1]; Homo sapiens, Fibroblast, PDE4 inhibitor in rising concentrations with fixed 100 nMol/L Nintedanib, read-out: IC50, inhibition of TGF-β-stimulated α-SMA protein expression, combination with Nintedanib",2000 nM
same,sign of inhibition of TGF-β-stimulated α-SMA protein expression over the concentration/inhibition curve,[1],negative inhibitions
same,IC50,"[2]; Homo sapiens, Fibroblast, PDE4 inhibitor alone, IPF lung fibroblasts, read-out: IC50, inhibition of FGF plus IL-1β-stimulated proliferation",1800 nM
same,IC50,"[2]; Homo sapiens, Fibroblast, PDE4 inhibitor in rising concentrations with fixed 100 nMol/L Nintedanib, read-out: IC50, inhibition of FGF plus IL-1β-stimulated proliferation, combination with Nintedanib",1600 nM
same,IC50 of PDE4 inhibitor alone compared to IC50 of its combination with Nintedanib (proliferation),[2],1.13 fold
same,effect of the combination with Nintedanib on inhibition of fibroblast proliferation versus calculated additive curve,[2],additive effect
